The values below are quoted from earlier work in publication PMC7941644, “Identification and Development of Therapeutics for COVID-19” (ArXiv, 2021).

The test system of this data set is SARS-CoV-2.

Consider `CCC(CC)COC(=O)[C@H](C)N[P@](=O)(OC[C@H]1O[C@@](C#N)(c2ccc3c(N)ncnn23)[C@H](O)[C@@H]1O)Oc1ccccc1` [remdesivir], for which the “inhibition of SARS-CoV-2 in vitro” value is reported as “inhibit SARS-CoV-2, showing synergy with CQ in vitro”.
